The record followed here is ChEMBL document CHEMBL6103552, “Identification of peptide-based hepatitis B virus capsid inhibitors based on the viral core protein” (Bioorg Med Chem Lett, 2025).

Calls of active or inactive are those of the source. How the calls were made is not given here.

The target in the test is Core antigen (Hepatitis B virus) (UniProt Q03732). The test can be described thus: Inhibition of Hepatitis B virus capsid formation at 100 uM treated during cell-free wild type HBV Cp synthesis using wheat germ lysates and HBV Cp RNA by Native capsid assay based western blot analysis. In kind it is subcellular.
Chain of Core antigen (Hepatitis B virus) (Q03732 as listed by the source): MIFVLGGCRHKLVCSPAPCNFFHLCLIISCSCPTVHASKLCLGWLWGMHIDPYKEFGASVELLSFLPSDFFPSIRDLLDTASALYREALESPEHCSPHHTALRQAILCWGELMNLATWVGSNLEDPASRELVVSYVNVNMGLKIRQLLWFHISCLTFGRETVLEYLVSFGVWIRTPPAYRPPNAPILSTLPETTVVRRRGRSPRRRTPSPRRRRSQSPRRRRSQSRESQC

On to `CC(=O)N[C@@H](C)C(=O)N[C@@H](CO)C(=O)N[C@H](C(=O)N[C@@H](CCC(=O)O)C(=O)N[C@@H](CC(C)C)C(=O)N[C@@H](CC(C)C)C(=O)N[C@@H](CO)C(=O)N[C@@H](Cc1ccccc1)C(=O)N[C@@H](CC(C)C)C(=O)N1CCC[C@H]1C(=O)N[C@@H](CO)C(=O)N[C@@H](CC(=O)O)C(=O)N[C@@H](Cc1ccccc1)C(=O)N[C@@H](Cc1ccccc1)C(=O)N1CCC[C@H]1C(N)=O)C(C)C`, for which the inhibition result is “inactive”.

On to `CC(=O)N[C@@H](Cc1ccc(O)cc1)C(=O)N[C@@H](CCCCN)C(=O)N[C@@H](CCC(=O)O)C(=O)N[C@@H](Cc1ccccc1)C(=O)NCC(=O)N[C@@H](C)C(=O)N[C@@H](CO)C(=O)N[C@H](C(=O)N[C@@H](CCC(=O)O)C(=O)N[C@@H](CC(C)C)C(=O)N[C@@H](CC(C)C)C(=O)N[C@@H](CO)C(=O)N[C@@H](Cc1ccccc1)C(=O)N[C@@H](CC(C)C)C(=O)N1CCC[C@H]1C(N)=O)C(C)C`, for which the inhibition entry was “inactive”.

For `CC(C)C[C@H](NC(=O)[C@@H](NC(=O)[C@@H](N)CO)[C@@H](C)O)C(=O)N1CCC[C@H]1C(=O)N[C@@H](CCC(=O)O)C(=O)N[C@H](C(=O)N[C@H](C(=O)N[C@H](C(=O)N[C@H](C(=O)N[C@@H](CCCNC(=N)N)C(=O)N[C@@H](CCCNC(=N)N)C(=O)N[C@@H](CCCNC(=N)N)C(=O)NCC(=O)N[C@@H](CCCNC(=N)N)C(=O)N[C@@H](CO)C(N)=O)C(C)C)C(C)C)[C@@H](C)O)[C@@H](C)O`, the inhibition result is “inactive”.

Regarding `CC(C)C[C@H](NC(=O)[C@H](CC(C)C)NC(=O)[C@H](CCC(=O)O)NC(=O)[C@@H](NC(=O)[C@H](CO)NC(=O)[C@H](C)N)C(C)C)C(=O)N[C@@H](CO)C(=O)N[C@@H](Cc1ccccc1)C(=O)N[C@@H](CC(C)C)C(=O)N1CCC[C@H]1C(=O)N[C@@H](CO)C(=O)N[C@@H](CC(=O)O)C(=O)N[C@@H](Cc1ccccc1)C(=O)N[C@@H](Cc1ccccc1)C(=O)N1CCC[C@H]1C(N)=O`, the inhibition result was “inactive”.

Turning to `CC(C)C[C@H](NC(=O)[C@H](CC(C)C)NC(=O)[C@H](CCC(=O)O)NC(=O)[C@@H](NC(=O)[C@H](CO)NC(=O)[C@H](C)NC(=O)CNC(=O)[C@H](Cc1ccccc1)NC(=O)[C@H](CCC(=O)O)NC(=O)[C@H](CCCCN)NC(=O)[C@@H](N)Cc1ccc(O)cc1)C(C)C)C(=O)N[C@@H](CO)C(=O)N[C@@H](Cc1ccccc1)C(=O)N[C@@H](CC(C)C)C(=O)N1CCC[C@H]1C(N)=O`, the inhibition entry is “inactive”.

Consider `CC(C)C[C@H](NC(=O)[C@H](CC(N)=O)NC(=O)[C@H](CO)NC(=O)CNC(=O)[C@@H](NC(=O)[C@@H](N)Cc1c[nH]c2ccccc12)C(C)C)C(=O)N[C@@H](CCC(=O)O)C(=O)N[C@@H](CC(=O)O)C(=O)N1CCC[C@H]1C(=O)N[C@@H](C)C(=O)N[C@@H](CO)C(=O)N[C@@H](CCCNC(=N)N)C(=O)N[C@@H](CCC(=O)O)C(=O)N[C@@H](CC(C)C)C(=O)N[C@H](C(N)=O)C(C)C`, for which the inhibition entry was “inactive”.

`CC(C)C[C@H](NC(=O)[C@H](CCC(=O)O)NC(=O)[C@H](CCCNC(=N)N)NC(=O)[C@H](CO)NC(=O)[C@H](C)NC(=O)[C@@H]1CCCN1C(=O)[C@H](CC(=O)O)NC(=O)[C@H](CCC(=O)O)NC(=O)[C@@H](N)CC(C)C)C(=O)N[C@H](C(=O)N[C@H](C(=O)N[C@@H](CO)C(=O)N[C@@H](Cc1ccc(O)cc1)C(=O)N[C@H](C(=O)N[C@@H](CC(N)=O)C(N)=O)C(C)C)C(C)C)C(C)C`: the inhibition entry is “inactive”.

For the compound `CC[C@H](C)[C@H](NC(=O)[C@@H](N)CO)C(=O)N[C@@H](CCCNC(=N)N)C(=O)N[C@@H](CC(=O)O)C(=O)N[C@@H](CC(C)C)C(=O)N[C@@H](CC(C)C)C(=O)N[C@@H](CC(=O)O)C(=O)N[C@H](C(=O)N[C@@H](C)C(=O)N[C@@H](CO)C(=O)N[C@@H](C)C(=O)N[C@@H](CC(C)C)C(=O)N[C@@H](Cc1ccc(O)cc1)C(=O)N[C@@H](CCCNC(=N)N)C(=O)N[C@@H](CCC(=O)O)C(N)=O)[C@@H](C)O`, the inhibition entry is “inactive”.

For the compound `CC[C@H](C)[C@H](NC(=O)[C@@H]1CCCN1C(=O)[C@H](C)NC(=O)[C@@H](N)CC(N)=O)C(=O)N[C@@H](CC(C)C)C(=O)N[C@@H](CO)C(=O)N[C@H](C(=O)N[C@@H](CC(C)C)C(=O)N1CCC[C@H]1C(=O)N[C@@H](CCC(=O)O)C(=O)N[C@H](C(=O)N[C@H](C(=O)N[C@H](C(=O)N[C@H](C(=O)N[C@@H](CCCNC(=N)N)C(N)=O)C(C)C)C(C)C)[C@@H](C)O)[C@@H](C)O)[C@@H](C)O`, the inhibition result was “inactive”.

As for `CC[C@H](C)[C@H](NC(=O)[C@H](C)NC(=O)[C@H](CCC(N)=O)NC(=O)[C@@H]1CCCN1)C(=O)N[C@@H](CC(C)C)C(=O)N[C@@H](CS)C(=O)N[C@@H](Cc1c[nH]c2ccccc12)C(=O)NCC(=O)N[C@@H](CCC(=O)O)C(=O)N[C@@H](CC(C)C)C(=O)N[C@@H](CCSC)C(=O)N[C@@H](CC(N)=O)C(=O)N[C@@H](CC(C)C)C(=O)N[C@@H](C)C(=O)N[C@H](C(N)=O)[C@@H](C)O`, the inhibition entry was “inactive”.

For `CC[C@H](C)[C@H](NC(=O)[C@H](CC(=O)O)NC(=O)[C@@H](N)CCSC)C(=O)N[C@@H](CC(=O)O)C(=O)N1CCC[C@H]1C(=O)N[C@@H](Cc1ccc(O)cc1)C(=O)N[C@@H](CCCCN)C(=O)N[C@@H](CCC(=O)O)C(=O)N[C@@H](Cc1ccccc1)C(=O)NCC(=O)N[C@@H](C)C(=O)N[C@@H](CO)C(=O)N[C@H](C(=O)N[C@@H](CCC(=O)O)C(=O)N[C@@H](CC(C)C)C(N)=O)C(C)C`, the inhibition result is “inactive”.

In the case of `CC[C@H](C)[C@H](NC(=O)[C@H](CC(=O)O)NC(=O)[C@H](CCSC)NC(C)=O)C(=O)N[C@@H](CC(=O)O)C(=O)N1CCC[C@H]1C(=O)N[C@@H](Cc1ccc(O)cc1)C(=O)N[C@@H](CCCCN)C(=O)N[C@@H](CCC(=O)O)C(=O)N[C@@H](Cc1ccccc1)C(=O)NCC(=O)N[C@@H](C)C(=O)N[C@@H](CO)C(=O)N[C@H](C(=O)N[C@@H](CCC(=O)O)C(=O)N[C@@H](CC(C)C)C(N)=O)C(C)C`, the inhibition result is “inactive”.

Consider `CC[C@H](C)[C@H](NC(=O)[C@H](CO)NC(=O)[C@@H]1CCCN1C(=O)[C@H](Cc1ccccc1)NC(=O)[C@H](Cc1ccccc1)NC(=O)[C@H](CC(=O)O)NC(=O)[C@@H](N)CO)C(=O)N[C@@H](CCCNC(=N)N)C(=O)N[C@@H](CC(=O)O)C(=O)N[C@@H](CC(C)C)C(=O)N[C@@H](CC(C)C)C(=O)N[C@@H](CC(=O)O)C(=O)N[C@H](C(=O)N[C@@H](C)C(=O)N[C@@H](CO)C(N)=O)[C@@H](C)O`, for which the inhibition result is “inactive”.

For the compound `CC[C@H](C)[C@H](NC(=O)[C@H](CO)NC(=O)[C@@H]1CCCN1C(=O)[C@H](Cc1ccccc1)NC(=O)[C@H](Cc1ccccc1)NC(=O)[C@H](CC(=O)O)NC(=O)[C@H](CO)NC(=O)[C@@H]1CCCN1C(=O)[C@H](CC(C)C)NC(=O)[C@H](Cc1ccccc1)NC(=O)[C@H](CO)NC(=O)[C@@H](N)CC(C)C)C(=O)N[C@@H](CCCNC(=N)N)C(=O)N[C@@H](CC(=O)O)C(=O)N[C@@H](CC(C)C)C(N)=O`, the inhibition result was “inactive”.

Regarding `CC[C@H](C)[C@H](NC(=O)[C@H](CO)NC(=O)[C@@H]1CCCN1C(=O)[C@H](Cc1ccccc1)NC(=O)[C@H](Cc1ccccc1)NC(=O)[C@H](CC(=O)O)NC(=O)[C@H](CO)NC(=O)[C@@H]1CCCN1C(=O)[C@H](CC(C)C)NC(=O)[C@H](Cc1ccccc1)NC(=O)[C@H](CO)NC(=O)[C@H](CC(C)C)NC(C)=O)C(=O)N[C@@H](CCCNC(=N)N)C(=O)N[C@@H](CC(=O)O)C(=O)N[C@@H](CC(C)C)C(N)=O`, the inhibition result is “inactive”.

On to `CC[C@H](C)[C@H](NC(=O)[C@H](CO)NC(=O)[C@@H]1CCCN1C(=O)[C@H](Cc1ccccc1)NC(=O)[C@H](Cc1ccccc1)NC(=O)[C@H](CC(=O)O)NC(=O)[C@H](CO)NC(C)=O)C(=O)N[C@@H](CCCNC(=N)N)C(=O)N[C@@H](CC(=O)O)C(=O)N[C@@H](CC(C)C)C(=O)N[C@@H](CC(C)C)C(=O)N[C@@H](CC(=O)O)C(=O)N[C@H](C(=O)N[C@@H](C)C(=O)N[C@@H](CO)C(N)=O)[C@@H](C)O`, for which the inhibition result is “inactive”.

For the compound `CC[C@H](C)[C@H](NC(=O)[C@H](Cc1c[nH]c2ccccc12)NC(=O)[C@@H](NC(=O)CNC(=O)[C@H](Cc1ccccc1)NC(=O)[C@@H](N)CO)C(C)C)C(=O)N[C@@H](CCCNC(=N)N)C(=O)N[C@H](C(=O)N1CCC[C@H]1C(=O)N1CCC[C@H]1C(=O)N[C@@H](C)C(=O)N[C@@H](Cc1ccc(O)cc1)C(=O)N[C@@H](CCCNC(=N)N)C(=O)N1CCC[C@H]1C(=O)N1CCC[C@H]1C(N)=O)[C@@H](C)O`, the inhibition result was “inactive”.

For the compound `CC[C@H](C)[C@H](NC(=O)[C@H](Cc1c[nH]cn1)NC(=O)[C@H](Cc1ccccc1)NC(=O)[C@H](Cc1c[nH]c2ccccc12)NC(=O)[C@H](CC(C)C)NC(=O)[C@H](CC(C)C)NC(=O)[C@H](CCC(N)=O)NC(=O)[C@H](CCCNC(=N)N)NC(=O)[C@H](Cc1ccccc1)NC(=O)[C@H](CCCCN)NC(=O)[C@H](CC(C)C)NC(=O)CNC(=O)[C@H](CCSC)NC(=O)[C@H](CC(N)=O)NC(=O)[C@@H](N)C(C)C)C(N)=O`, the inhibition result is “inactive”.

In the case of `CSCC[C@H](N)C(=O)N[C@@H](CC(N)=O)C(=O)N[C@@H](CC(C)C)C(=O)N[C@@H](C)C(=O)N[C@H](C(=O)N[C@@H](Cc1c[nH]c2ccccc12)C(=O)N[C@H](C(=O)NCC(=O)N[C@@H](CO)C(=O)N[C@@H](CC(N)=O)C(=O)N[C@@H](CC(C)C)C(=O)N[C@@H](CCC(=O)O)C(=O)N[C@@H](CC(=O)O)C(=O)N1CCC[C@H]1C(=O)N[C@@H](C)C(N)=O)C(C)C)[C@@H](C)O`, the inhibition result was “inactive”.

For `CSCC[C@H](NC(=O)[C@H](CC(C)C)NC(=O)[C@H](CCC(=O)O)NC(=O)CNC(=O)[C@H](Cc1c[nH]c2ccccc12)NC(=O)[C@@H](N)CS)C(=O)N[C@@H](CC(N)=O)C(=O)N[C@@H](CC(C)C)C(=O)N[C@@H](C)C(=O)N[C@H](C(=O)N[C@@H](Cc1c[nH]c2ccccc12)C(=O)N[C@H](C(=O)NCC(=O)N[C@@H](CO)C(=O)N[C@@H](CC(N)=O)C(N)=O)C(C)C)[C@@H](C)O`, the inhibition result is “inactive”.

Turning to `CSCC[C@H](NC(=O)[C@H](CC(N)=O)NC(=O)[C@@H](NC(=O)[C@H](CC(N)=O)NC(=O)[C@@H](NC(=O)[C@H](Cc1ccc(O)cc1)NC(=O)[C@H](CO)NC(=O)[C@@H](NC(=O)[C@@H](NC(=O)[C@H](CC(C)C)NC(=O)[C@H](CCC(=O)O)NC(=O)[C@H](CCCNC(=N)N)NC(=O)[C@@H](N)CO)C(C)C)C(C)C)C(C)C)C(C)C)C(=O)NCC(=O)N[C@@H](CC(C)C)C(N)=O`, the inhibition entry was “inactive”.
